We go through eleven compounds from ChEMBL document CHEMBL1201862, “PubChem BioAssay data set” (2004).

Among the test systems are SK-MEL-28; HCT-15; OVCAR-4; OVCAR-8; RPMI-8226; NCI-H23; RXF 393; CCRF-CEM; NCI-H522; SF-295; NCI/ADR-RES; EKVX; PC-3; MDA-N; UACC-62; SK-MEL-2; A498; K562; CAKI-1; MDA-MB-231.
What all share (assay): growth of human tumour cells (NCI), 48 h

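Grown in 96-well plates, cells were treated for 48 hours with each compound at five concentrations. Insufficient inhibition: endpoint recorded as highest concentration tested. GI50 = concentration required for 50% inhibition of growth.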 The source made the active and inactive calls. Cut-off read from the data, not from the text of the source: active = GI50 up to about 1.1 µM and inactive = higher.

With `CN(CCc1ccccn1)C(=S)N/N=C(\c1ccccc1)c1ccccn1`, the GI50 with SK-MEL-28 was 0.802 µM (active); in the assay with HCT-15, under 0.01 µM; in the assay on OVCAR-4, 0.0334 µM (active); in the assay on OVCAR-8 it was < 0.01 µM (active); with RPMI-8226, < 0.01 µM (active); in the assay on NCI-H23, < 0.01 µM (active). Further, the GI50 is 1.09 µM (active) with RXF 393; < 0.01 µM (active) with CCRF-CEM; < 0.01 µM (active) in the assay on NCI-H522; < 0.0266 µM (active) in the assay with SF-295; < 0.01 µM (active) in the assay with NCI/ADR-RES; < 0.01 µM (active) with EKVX. Besides, the GI50 in the assay with PC-3 was < 0.01 µM (active); in the assay on MDA-N, 0.582 µM (active); in the assay on UACC-62 it was 0.23 µM (active); in the assay on SK-MEL-2, 1.42 µM (inactive); in the assay on A498, < 0.01 µM (active); in the assay with K562, < 0.01 µM (active). In addition, the GI50 with CAKI-1 is < 0.01 µM (active).

Consider `O=C(O)c1ccc(C2=Nc3cccc4cccc(c34)N2)cc1`, for which the GI50 in the assay with SK-MEL-28 is > 100 µM (inactive); in the assay with HCT-15, over 100 µM; in the assay on OVCAR-4, > 100 µM (inactive); in the assay with OVCAR-8 it was > 100 µM (inactive); in the assay on RPMI-8226, > 100 µM (inactive); with NCI-H23, > 100 µM (inactive). Moreover, the GI50 was > 100 µM (inactive) with RXF 393; 24.7 µM (inactive) in the assay on CCRF-CEM; 82.6 µM (inactive) in the assay on NCI-H522; > 100 µM (inactive) in the assay on SF-295; > 100 µM (inactive) with NCI/ADR-RES; > 100 µM (inactive) in the assay with MDA-MB-231. The GI50 with EKVX, in the assay with PC-3, in the assay on MDA-N, in the assay on UACC-62, in the assay on SK-MEL-2 and with K562 was > 100 µM (inactive) in each case. For the same compound, in the assay on CAKI-1, the GI50 is > 100 µM (inactive).

For `O=C(Nc1ccccc1C(=O)O)C(=Cc1ccccc1O)NC(=O)c1ccccc1`, the GI50 with SK-MEL-28 was > 100 µM (inactive); in the assay with HCT-15 it was over 100 µM; in the assay on OVCAR-8, > 100 µM (inactive); in the assay on RPMI-8226, > 100 µM (inactive); with NCI-H23, > 100 µM (inactive); in the assay with RXF 393, > 100 µM (inactive). In addition, the GI50 in the assay with CCRF-CEM, in the assay with NCI-H522, in the assay with SF-295, in the assay with NCI/ADR-RES, in the assay with MDA-MB-231 and in the assay with EKVX was > 100 µM (inactive) in each case. The GI50 with PC-3, in the assay on UACC-62, in the assay on SK-MEL-2, with A498, in the assay on K562 and in the assay on CAKI-1 was > 100 µM (inactive) throughout.

In the case of `[O-][S+](c1ccc(Cl)cc1)c1ccccc1C1=NCCN1` (stereo not drawn), the GI50 in the assay with SK-MEL-28 is > 100 µM (inactive); in the assay on HCT-15, over 100 µM; in the assay with OVCAR-4 it was > 100 µM (inactive); in the assay with OVCAR-8, > 100 µM (inactive); with RPMI-8226, > 100 µM (inactive); with NCI-H23 it was > 100 µM (inactive). For the same compound, the GI50 in the assay on RXF 393, in the assay with CCRF-CEM, in the assay with NCI-H522, with SF-295, in the assay with NCI/ADR-RES and in the assay on MDA-MB-231 was > 100 µM (inactive) each time. Besides, the GI50 with EKVX, in the assay with PC-3, in the assay with MDA-N, with UACC-62, in the assay on SK-MEL-2 and in the assay on K562 was > 100 µM (inactive) in each case. The GI50 with CAKI-1 is > 100 µM (inactive).

As to `O=C1Oc2ccccc2C(=O)/C1=C/NC(=S)NCCc1ccccc1`, the GI50 was > 100 µM (inactive) with SK-MEL-28; 34.6 µM in the assay on HCT-15; 34.9 µM (inactive) with OVCAR-4; 29.2 µM (inactive) with OVCAR-8; 35.2 µM (inactive) with RPMI-8226; 33.1 µM (inactive) with NCI-H23. The GI50 is 39.8 µM (inactive) in the assay on RXF 393; 27.9 µM (inactive) in the assay with CCRF-CEM; 23.3 µM (inactive) with NCI-H522; 38.5 µM (inactive) in the assay with SF-295; 38.7 µM (inactive) in the assay with NCI/ADR-RES; 37.8 µM (inactive) with MDA-MB-231. Also, the GI50 with EKVX is 63.7 µM (inactive); in the assay on PC-3 it was 39.8 µM (inactive); in the assay with MDA-N, 32.8 µM (inactive); in the assay with UACC-62, 26.9 µM (inactive); in the assay with SK-MEL-2, 19.4 µM (inactive); in the assay on K562 it was > 100 µM (inactive). Besides, in the assay on CAKI-1, the GI50 is 35.3 µM (inactive).

On to `CC1=CC[C@@]2(C)CC[C@](O)(C(C)C)C2C(OC(=O)c2ccccc2)C1` (stereo partly drawn), for which the GI50 in the assay on SK-MEL-28 was 24 µM (inactive); in the assay on HCT-15, 18.7 µM; in the assay with OVCAR-4, 25 µM (inactive); in the assay with OVCAR-8, 19.4 µM (inactive); with RPMI-8226, 16 µM (inactive); in the assay with NCI-H23, 18.5 µM (inactive). For the same compound, the GI50 in the assay on RXF 393 was 12.7 µM (inactive); with CCRF-CEM, 23 µM (inactive); in the assay on NCI-H522, 16.5 µM (inactive); in the assay on SF-295, 15.6 µM (inactive); in the assay with NCI/ADR-RES, 19.7 µM (inactive); with MDA-MB-231, 17.9 µM (inactive). The GI50 in the assay on EKVX was 15.5 µM (inactive); in the assay with PC-3, 18.7 µM (inactive); in the assay with SK-MEL-2 it was 14.4 µM (inactive); in the assay with A498, 24.4 µM (inactive); in the assay on K562, 19.5 µM (inactive); with CAKI-1 it was 21.1 µM (inactive).

As to `CCOC(=O)c1cnc(-n2[nH]c(C)c(CCO)c2=O)[nH]c1=O`, the GI50 with SK-MEL-28 is > 100 µM (inactive); in the assay on HCT-15, over 100 µM; in the assay with OVCAR-4 it was > 100 µM (inactive); with OVCAR-8, > 100 µM (inactive); in the assay with RPMI-8226 it was > 100 µM (inactive); in the assay on NCI-H23, > 100 µM (inactive). Further, the GI50 in the assay with RXF 393, with CCRF-CEM, with SF-295, in the assay on NCI/ADR-RES, in the assay with MDA-MB-231 and in the assay with EKVX was > 100 µM (inactive) throughout. Also, the GI50 in the assay with PC-3, in the assay with MDA-N, in the assay on UACC-62, in the assay with SK-MEL-2, in the assay with K562 and in the assay with CAKI-1 was > 100 µM (inactive) throughout.

As to `COC(=O)C1(C(=O)OC)C/C(C)=C(/C)SCCCS1`, the GI50 in the assay with SK-MEL-28 was > 100 µM (inactive); in the assay with HCT-15 it was over 100 µM; in the assay on OVCAR-4, > 100 µM (inactive); with OVCAR-8, > 100 µM (inactive); with NCI-H23 it was > 100 µM (inactive); with RXF 393, > 100 µM (inactive). In addition, the GI50 in the assay with CCRF-CEM, in the assay on NCI-H522, in the assay on SF-295, in the assay with NCI/ADR-RES, in the assay on MDA-MB-231 and in the assay on EKVX was > 100 µM (inactive) each time. Further, the GI50 in the assay on PC-3 is 64.1 µM (inactive); in the assay on MDA-N, > 100 µM (inactive); in the assay on UACC-62, > 100 µM (inactive); in the assay with SK-MEL-2, > 100 µM (inactive); in the assay with K562, 43.1 µM (inactive); in the assay with CAKI-1, > 100 µM (inactive).

For the compound `CS(=O)(=O)c1nc(-c2cc3c(c(S(C)(=O)=O)n2)CCCC3)cc2c1CCCCC2`, the GI50 in the assay with SK-MEL-28 is > 100 µM (inactive); in the assay with HCT-15, over 100 µM; in the assay with OVCAR-4, > 100 µM (inactive); in the assay with OVCAR-8, 32.5 µM (inactive); with RPMI-8226 it was > 100 µM (inactive); in the assay with NCI-H23, > 100 µM (inactive). In addition, the GI50 in the assay with RXF 393 was 48.6 µM (inactive); in the assay on CCRF-CEM, > 100 µM (inactive); in the assay on NCI-H522, 21.1 µM (inactive); in the assay with SF-295 it was > 100 µM (inactive); with NCI/ADR-RES, > 100 µM (inactive); in the assay on MDA-MB-231, 65.5 µM (inactive). In addition, the GI50 is > 100 µM (inactive) in the assay with EKVX; > 100 µM (inactive) with PC-3; > 100 µM (inactive) in the assay on MDA-N; > 100 µM (inactive) in the assay on UACC-62; > 100 µM (inactive) with SK-MEL-2; 59.3 µM (inactive) with CAKI-1.

Take `C/C(=N/O)c1cccc(Nc2nc3ccc(Cl)cc3c3[nH]c4ccccc4c23)c1`: the GI50 is 2.12 µM (inactive) in the assay with SK-MEL-28; 1.44 µM in the assay on HCT-15; 1.9 µM (inactive) in the assay with OVCAR-4; 1.93 µM (inactive) with OVCAR-8; 1.66 µM (inactive) with RPMI-8226; 1.92 µM (inactive) with NCI-H23. The GI50 with RXF 393 was 1.67 µM (inactive); in the assay with CCRF-CEM it was 1.34 µM (inactive); in the assay with NCI-H522, 1.12 µM (active); in the assay with SF-295 it was 1.41 µM (inactive); in the assay on NCI/ADR-RES, 1.92 µM (inactive); in the assay with MDA-MB-231 it was 2.59 µM (inactive). Besides, the GI50 was 1.79 µM (inactive) in the assay on PC-3; 1.71 µM (inactive) in the assay on MDA-N; 1.83 µM (inactive) with UACC-62; 1.93 µM (inactive) in the assay with SK-MEL-2; 2.02 µM (inactive) in the assay with K562; 2.24 µM (inactive) in the assay on CAKI-1.

With `CC(C)(C)c1ccc(OCCOc2ccc(C(C)(C)C)cc2N)c(N)c1`, the GI50 with SK-MEL-28 is > 100 µM (inactive); with HCT-15, 37.5 µM; in the assay with OVCAR-4 it was 20 µM (inactive); with OVCAR-8 it was 29.9 µM (inactive); in the assay with RPMI-8226, 9.89 µM (inactive); in the assay with NCI-H23, 27.6 µM (inactive). Besides, the GI50 was > 100 µM (inactive) in the assay with RXF 393; 22.9 µM (inactive) with CCRF-CEM; 11.4 µM (inactive) in the assay with NCI-H522; > 100 µM (inactive) in the assay with SF-295; 48.8 µM (inactive) in the assay with NCI/ADR-RES; 17.5 µM (inactive) in the assay on MDA-MB-231. The GI50 in the assay with EKVX is > 100 µM (inactive); in the assay on PC-3 it was > 100 µM (inactive); in the assay on UACC-62, > 100 µM (inactive); with SK-MEL-2, > 100 µM (inactive); in the assay on A498, 18.3 µM (inactive); with K562, > 100 µM (inactive). Besides, the GI50 in the assay on CAKI-1 is > 100 µM (inactive).
